The values below come from US9137998B2, “Pesticidal compositions and related methods” (DOW AGROSCIENCES LLC, priority 2013, dated 2015).

For series [1], the system named is Green Peach Aphid (Myzus persicae) (GPA) (MYZUPE). Nature of the series: Bioassay for Green Peach Aphid (GPA), foliar spray on cabbage seedlings. It counts as in vivo. The settings on record: Myzus persicae, 72 h, 200 ppm foliar spray, graded after three days, Abbott corrected % control, read-out: % Control (or Mortality) rating, GPA. As to the method:
Cabbage seedlings grown in 3-inch pots, with 2-3 small (3-5 cm) true leaves, were used as test substrate. The seedlings were infested with 20-50 GPA (wingless adult and nymph stages) one day prior to chemical application. Four pots with individual seedlings were used for each treatment. Test compounds (2 mg) were dissolved in 2 mL of acetone/methanol (1:1) solvent, forming stock solutions of 1000 ppm test compound. The stock solutions were diluted 5× with 0.025% Tween 20 in H2O to obtain the solution at 200 ppm test compound. A hand-held aspirator-type sprayer was used for spraying a solution to both sides of […] leaves until runoff. Reference plants (solvent check) were sprayed with the diluent only containing 20% by volume of acetone/methanol (1:1) solvent. Treated plants were held in a holding room for three days at approximately 25° C. and ambient relative humidity (RH) prior to grading. Evaluation was conducted by counting the number of live aphids per plant under a microscope. Percent control was measured by using Abbott's correction formula (W. S. Abbott, “A Method of Computing the Effectiveness of an Insecticide” J. Econ. Entomol. 18 (1925), pp. 265-267) as follows. Corrected % Control=100*(X−Y)/X
X=No. of live aphids on solvent check plants and
Y=No. of live aphids on treated plants
Biological Data for Green Peach Aphid (GPA) (MYZUPE) and Sweetpotato Whitefly-crawler (WF) (BEMITA)” (See Table Section).

Series [2] concerns Sweetpotato Whitefly-Crawler (Bemisia tabaci) (WF) (BEMITA). Nature of the series: Insecticidal test for Sweetpotato Whitefly-crawler (WF) in foliar spray assay on cotton plants. The class given is in vivo. The settings on record: Bemisia tabaci, 216 h, 200 ppm foliar spray, graded after 9 days, Abbott corrected % control, read-out: % Control (or Mortality) rating, WF. As to the method: Cotton plants (Gossypium hirsutum) grown in 3-inch pots, with 1 small (4-5 cm) true leaves, were used as test substrate. The plants were infested with 200-400 whitefly eggs 4-5 days prior to chemical application. Four pots with individual plants were used for each treatment. Test compounds (2 mg) were dissolved in 1 mL of acetone solvent, forming stock solutions of 2000 ppm test compound. The stock solutions were diluted 10× with 0.025% Tween 20 in H2O (diluents) to obtain the solution at 200 ppm test compound. A hand-held aspirator-type sprayer was used for spraying a solution to both sides of cotton leaves until runoff. Reference plants (solvent check) were sprayed with the diluent only containing 10% by volume of acetone solvent. Treated plants were held in a holding room for 9 days at approximately 25° C. and ambient relative humidity (RH) prior to grading. Evaluation was conducted by counting the number of live 3-4 nymph stage per plant under a microscope. Percent control was measured by using Abbott's correction formula (W. S. Abbott, “A Method of Computing the Effectiveness of an Insecticide” J. Econ. Entomol. 18 (1925), pp. 265-26′7) as follows. Corrected % Control=100*(X−Y)/X
X=No. of live nymphs on solvent check plants and
Y=No. of live nymphs on treated plants. […]

By melting point is commonly meant the temperature of the solid-liquid transition. In the case of `C#CCN(C(=O)OC(C)(C)C)c1sc(Br)nc1C` [CA4, tert-Butyl (2-bromo-4-methylthiazol-5-yl)(prop-2-yn-1-yl)carbamate], the melting point was 82 to 86 °C.
The compound `C#CCN(C(=O)OC(C)(C)C)c1sc(-c2cncnc2)nc1Cl` [CA10, tert-Butyl (4-chloro-2-(pyrimidin-5-yl)thiazol-5-yl)(prop-2-yn-1-yl) carbamate] gave a melting point of 80 to 83 °C.
Usually mortality stands for the share of the test organisms that died. Turning to `C#CCN(C(=O)CCSCC1CC1(F)F)c1sc(-c2cccnc2)nc1C` (centres unmarked) [Compound P10, 3-(((2,2-Difluorocyclopropyl)methyl)thio)-N-(4-methyl-2-(pyridin-3-yl)thiazol-5-yl)-N-(prop-2-yn-1-yl)propanamide], the mortality at 200 ppm in series [1] and in series [2] was 80 to 100% each time.
For the compound `CC#CCN(C(=O)CCSCCC(F)(F)F)c1sc(-c2cccnc2)nc1C` [Compound P16, N-(But-2-yn-1-yl)-N-(4-methyl-2-(pyridin-3-yl)thiazol-5-yl)-3-((3,3,3-trifluoropropyl)thio) propanamide], the mortality at 200 ppm in series [1] and in series [2] was 80 to 100% each time.
As for `CC#CCN(C(=O)CCSC)c1sc(-c2cccnc2)nc1C` [Compound P17, N-(But-2-yn-1-yl)-N-(4-methyl-2-(pyridin-3-yl)thiazol-5-yl)-3-(methylthio)propanamide], the mortality at 200 ppm in series [1] and in series [2] was 80 to 100% in each case.
On to `C#CCN(C(=O)CCSCCC(F)(F)F)c1sc(-c2cncc(F)c2)nc1C` [Compound P19, N-(2-(5-Fluoropyridin-3-yl)-4-methylthiazol-5-yl)-N-(prop-2-yn-1-yl)-3-((3,3,3-trifluoropropyl)thio)propanamide], for which the mortality at 200 ppm in series [1] and in series [2] was 80 to 100% each time.
Take `C#CCN(C(=O)CCSCC1CC1(F)F)c1sc(-c2cncc(F)c2)nc1C` (centres unmarked) [Compound P22, 3-(((2,2-Difluorocyclopropyl)methyl)thio)-N-(2-(5-fluoropyridin-3-yl)-4-methylthiazol-5-yl)-N-(prop-2-yn-1-yl)propanamide]: the mortality at 200 ppm in series [1] and in series [2] was 80 to 100% each time.
On to `C#CC(C)N(C(=O)CCSCC1CC1(F)F)c1sc(-c2cccnc2)nc1C` (centres unmarked) [Compound P31, N-(But-3-yn-2-yl)-3-(((2,2-difluorocyclopropyl)methyl)thio)-N-(4-methyl-2-(pyridin-3-yl)thiazol-5-yl)propanamide], for which the mortality at 200 ppm in series [1] and in series [2] was 80 to 100% in each case.
In the case of `C#CC(C)N(C(=O)CCSCCC(F)(F)F)c1sc(-c2cccnc2)nc1C` (centres unmarked) [Compound P32, N-(But-3-yn-2-yl)-N-(4-methyl-2-(pyridin-3-yl)thiazol-5-yl)-3-((3,3,3-trifluoropropyl)thio) propanamide], the mortality at 200 ppm in series [1] and in series [2] was 80 to 100% each time.
Turning to `C#CCN(C(=O)CCSCCC(F)(F)F)c1sc(-c2cccnc2)nc1Cl` [FA1, N-(4-Chloro-2-(pyridin-3-yl)thiazol-5-yl)-N-(prop-2-yn-1-yl)-3-((3,3,3-trifluoropropyl)thio) propanamide], the mortality at 200 ppm in series [1] and in series [2] was 80 to 100% each time.
In the case of `C#CCN(C(=O)CCSCCC(F)(F)F)c1sc(-c2cncc(F)c2)nc1Cl` [FA2, N-(4-Chloro-2-(5-fluoropyridin-3-yl)thiazol-5-yl)-N-(prop-2-yn-1-yl)-3-((3,3,3-trifluoropropyl)thio)propanamide], the mortality at 200 ppm in series [1] and in series [2] was 80 to 100% each time.
Consider `C#CCN(C(=O)CCSCCC(F)(F)F)c1sc(-c2cncnc2)nc1Cl` [FA3, N-(4-chloro-2-(pyrimidin-5-yl)thiazol-5-yl)-N-(prop-2-yn-1-yl)-3-((3,3,3-trifluoropropyl)thio)propanamide], for which the mortality at 200 ppm in series [1] and in series [2] was 80 to 100% each time.
With `C#CCN(C(=O)CCSC)c1sc(-c2cncc(F)c2)nc1C` [FA4, N-(2-(5-Fluoropyridin-3-yl)-4-methylthiazol-5-yl)-3-(methylthio)-N-(prop-2-yn-1-yl)propanamide], the mortality at 200 ppm in series [1] and in series [2] was 80 to 100% each time.
In the case of `C#CCN(C(=O)C(C)CSC)c1sc(-c2cncc(F)c2)nc1C` (centres unmarked) [FA5, N-(2-(5-Fluoropyridin-3-yl)-4-methylthiazol-5-yl)-2-methyl-3-(methylthio)-N-(prop-2-yn-1-yl) propanamide], the mortality at 200 ppm in series [1] and in series [2] was 80 to 100% throughout.
As for `C#CCN(C(=O)CC[S+]([O-])CCC(F)(F)F)c1sc(-c2cccnc2)nc1Cl` (centres unmarked) [FA6, N-(4-chloro-2-(pyridin-3-yl)thiazol-5-yl)-N-(prop-2-yn-1-yl)-3-((3,3,3trifluoropropyl)sulfinyl)propanamide], the mortality at 200 ppm in series [1] and in series [2] was 80 to 100% each time.
As for `C#CCN(C(=O)CC[S+]([O-])CCC(F)(F)F)c1sc(-c2cncc(F)c2)nc1Cl` (centres unmarked) [FA7, N-(4-Chloro-2-(5-fluoropyridin-3-yl)thiazol-5-yl)-N-(prop-2-yn-1-yl)-3-((3,3,3-trifluoropropyl)sulfinyl)propanamide], the mortality at 200 ppm in series [1] and in series [2] was 80 to 100% throughout.
With `C#CCN(C(=O)CC[S+]([O-])CCC(F)(F)F)c1sc(-c2cncnc2)nc1Cl` (centres unmarked) [FA8, N-(4-Chloro-2-(pyrimidin-5-yl)thiazol-5-yl)-N-(prop-2-yn-1-yl)-3-((3,3,3-trifluoropropyl)sulfinyl)propanamide], the mortality at 200 ppm in series [1] and in series [2] was 80 to 100% in each case.
Regarding `C#CCN(C(=O)CC[S+]([O-])CC1CC1(F)F)c1sc(-c2cccnc2)nc1C` (centres unmarked) [FA9, 3-(((2,2-Difluorocyclopropyl)methyl)sulfinyl)-N-(4-methyl-2-(pyridin-3-yl)thiazol-5-yl)-N-(prop-2-yn-1-yl)propanamide], the mortality at 200 ppm in series [1] and in series [2] was 80 to 100% throughout.
As for `C#CCN(C(=O)CCS(=O)(=O)CCC(F)(F)F)c1sc(-c2cccnc2)nc1Cl` [FA10, N-(4-chloro-2-(pyridin-3-yl)thiazol-5-yl)-N-(prop-2-yn-1-yl)-3-((3,3,3-trifluoropropyl)sulfonyl)propanamide], the mortality at 200 ppm in series [1] and in series [2] was 80 to 100% throughout.
Consider `C#CCN(C(=O)CCS(=O)(=O)CCC(F)(F)F)c1sc(-c2cncc(F)c2)nc1Cl` [FA11, N-(4-Chloro-2-(5-fluoropyridin-3-yl)thiazol-5-yl)-N-(prop-2-yn-1-yl)-3-((3,3,3-trifluoropropyl)sulfonyl)propanamide], for which the mortality at 200 ppm in series [1] and in series [2] was 80 to 100% in each case.
For `C#CCN(C(=O)CCS(=O)(=O)CCC(F)(F)F)c1sc(-c2cncnc2)nc1Cl` [FA12, N-(4-Chloro-2-(pyrimidin-5-yl)thiazol-5-yl)-N-(prop-2-yn-1-yl)-3-((3,3,3-trifluoropropyl)sulfonyl) propanamide], the mortality at 200 ppm in series [1] and in series [2] was 80 to 100% throughout.
`C#CCN(C(=O)CCS(=O)(=O)CC1CC1(F)F)c1sc(-c2cccnc2)nc1C` (centres unmarked) [FA13, 3-(((2,2-Difluorocyclopropyl)methyl)sulfonyl)-N-(4-methyl-2-(pyridin-3-yl)thiazol-5-yl)-N-(prop-2-yn-1-yl)propanamide]: the mortality at 200 ppm in series [1] and in series [2] was 80 to 100% throughout.
With `CC#CCN(C(=O)CCSCC1CC1(F)F)c1sc(-c2cccnc2)nc1C` (centres unmarked) [FA14, N-(But-2-yn-1-yl)-3-(((2,2-difluorocyclopropyl)methyl)thio)-N-(4-methyl-2-(pyridin-3-yl)thiazol-5-yl)propanamide], the mortality at 200 ppm in series [1] and in series [2] was 80 to 100% throughout.
